Counter-ions that a name gives are not always drawn.

Chain of TRPC6 (Q9Y210 whole entry, species assumed): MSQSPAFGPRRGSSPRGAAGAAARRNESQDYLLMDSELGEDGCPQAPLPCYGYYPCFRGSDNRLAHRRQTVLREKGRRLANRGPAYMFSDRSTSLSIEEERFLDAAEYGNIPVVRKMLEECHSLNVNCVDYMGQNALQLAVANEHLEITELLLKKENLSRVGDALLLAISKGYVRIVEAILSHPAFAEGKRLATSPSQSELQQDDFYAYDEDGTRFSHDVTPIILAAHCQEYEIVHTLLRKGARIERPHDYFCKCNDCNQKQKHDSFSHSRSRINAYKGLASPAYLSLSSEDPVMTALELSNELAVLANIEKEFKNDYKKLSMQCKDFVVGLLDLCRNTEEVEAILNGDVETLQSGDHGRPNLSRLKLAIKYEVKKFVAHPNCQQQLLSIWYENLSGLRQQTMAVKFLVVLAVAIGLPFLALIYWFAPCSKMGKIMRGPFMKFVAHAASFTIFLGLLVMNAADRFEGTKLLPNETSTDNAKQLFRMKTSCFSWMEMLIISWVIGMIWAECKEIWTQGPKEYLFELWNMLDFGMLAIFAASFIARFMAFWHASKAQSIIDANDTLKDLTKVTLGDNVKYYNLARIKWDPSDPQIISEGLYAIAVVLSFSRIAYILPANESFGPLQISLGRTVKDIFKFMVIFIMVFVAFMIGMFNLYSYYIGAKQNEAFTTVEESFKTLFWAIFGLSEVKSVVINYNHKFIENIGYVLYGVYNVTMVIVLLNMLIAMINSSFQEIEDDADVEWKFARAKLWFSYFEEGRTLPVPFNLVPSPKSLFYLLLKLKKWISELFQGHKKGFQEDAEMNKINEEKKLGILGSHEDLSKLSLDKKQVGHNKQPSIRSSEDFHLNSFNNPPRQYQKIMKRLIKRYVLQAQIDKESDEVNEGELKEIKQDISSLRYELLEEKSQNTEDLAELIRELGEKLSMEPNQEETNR

This experiment concerns the target TRPC6 (Homo sapiens (Human), UniProt Q9Y210). The experiment in a line: High throughput screening assay: fluorescent calcium (Fluo4/AM) assay of TRPC6 channel activation by GSK1702934A in HEK293/TREx cells. The experiment is classed as cell-based. The settings on record: HEK293/TREx cells stably transfected with TRPC6; agonist GSK1702934A; 7 concentrations 20 μM to 0.027 μM, triplicate. From the text: This screening assay measures TRPC6 (transient receptor potential cation channel, subfamily C, member 6) ion channel activation via addition either of the commercially available DAG ligand analogue OAG (1-oleoyl-2-acetyl-sn-glycerol) or of the TRPC6 agonist 1-[1-(4,5,6,7,8-pentahydrocyclohepta[2,1-d]thiophen-2-ylcarbonyl)-4-piperidyl]-3-hydrobenzimidazol-2-one (GSK1702934A). The assay utilizes a FLIPR fluorescent calcium sensor 4-(6-Acetoxymethoxy-2,7-difluoro-3-oxo-9-xanthenyl)-4′-methyl-2,2′-(ethylenedioxy)dianiline-N,N,N′,N′-tetraacetic acid tetrakis(acetoxymethyl) ester (Fluo4/AM) […]. Changes (increases) in intracellular membrane calcium concentration potential as measured by the fluorescent signal increase during membrane depolarization provide a measurement of channel activity.
The commercially available HEK293/TREx line (Invitrogen) was stably transfected with a TRPC6 construct and screened by conventional calcium imaging to find clones with TRPC6 expression following stimulation with 1 μg/ml tetracycline. These cells were maintained in the growth medium recommended by the manufacturer supplemented with 100 μg/ml hygromycin to promote retention of the TRPC6 construct. After growing to near confluency, cells were plated at a density of ^˜35,000 cells/well in 384 well CellBind plates (Corning) in the presence of 1 μg/ml tetracycline, and allowed to grow for 20-30 hrs. A nearly confluent monolayer resulted. Growth media was removed from the wells and cells were then loaded with […] Fluo4/AM diluted in Ringer's Solution (6.5 g NaCl, 0.42 g KCl, 0.25 g CaCl2) and 0.2 g of sodium bicarbonate; pH 7.4) supplemented with 1% Pluronic F-127 to a final concentration of 0.5 μM and incubated for 60 min, at room temperature. Dye solution was then removed from the cells by inverting plates with a sharp flick, and replaced with 25 μl Ringer's. Following ^˜0.5 hour for recovery from loading, cells were assayed using the Hamamatsu FDSS 6000 system, which permitted illumination at 485 nm. Frames were acquired at a rate of 0.2 Hz. During the assay, the plates were continuously vortexed, with pipette mixing of wells following addition of each reagent. For the screening assay, 26 μl of a diluted compound stock (at 50 μM) was added to each well for 2 minutes following the collection of a short (4 frame) baseline. 13 μl of agonist solution consisting of 125 nM GSK1702934A diluted in high-Ca2+Ringer solution (containing 90 mm Ca2+) was then added to each well, achieving a final concentration of 20 mm Ca2+ and 10 μM test compound. Data was collected for ^˜3 minutes following addition of high Ca2+Ringer. The fluorescent ratio for each well was divided by the initial fluorescent intensity for that well and the overall response was determined by averaging the fluorescent ratio of the last 4 frames acquired during the experiment excepting the final frame. Negative and Positive controls were included on each plate. Negative controls wells consisted of HEK293/TREx TRPC6 cells exposed to assay buffer and agonist solution, but no test compound. Positive control consisted of wells consisted of HEK293/TREx TRPC6 cells exposed to 25 μM 3-[(2-chlorophenoxy)methyl]phenyl piperidyl ketone (Chembridge) diluted in Ringer's solution and agonist solution. These controls defined zero percent and 100 percent block respectively, and intensity of each well was normalized to these values.
Compounds were tested in triplicate at all concentrations. Standard software was used to fit IC50 curves.
Take `CCCOc1cnc(C(=O)N2CCC(c3cnc(N)cc3OC)CC2)cc1OC` [Compound 46, (6-Amino-4-methoxy-3′,4′,5′,6′-tetrahydro-2′H-[3,4′]bipyridinyl-1′-yl)-(4-methoxy-5-propoxy-pyridin-2-yl)-methanone]: the IC50 is 160 nM.

`COc1cc(C(=O)N2CCC(c3cnc(N)cc3OC)CC2)ncc1OC[C@H]1C[C@@H](C(F)(F)F)C1` [Compound 93, TFA salt of 4-Methoxy-5-[1-(4-methoxy-5-{[3-(trifluoromethyl)-cyclobutyl]methoxy}-pyridine-2-carbonyl)piperidin-4-yl]pyridin-2-amin]: the IC50 came to 595 nM.

On to `COc1cc(C(=O)N2CCN(c3cnc(N)cc3OC)C[C@@H]2CO)ncc1Oc1ccccc1` [Compound 69, [(R)-4-(6-Amino-4-methoxy-pyridin-3-yl)-2-hydroxymethyl-piperazin-1-yl]-(4-methoxy-5-phenoxy-pyridin-2-yl)-methanone], for which the IC50 amounted to 630 nM.

Consider `COc1ccc(Oc2cnc(C(=O)N3CCN(c4ccc(N)nc4)C[C@@H]3CO)cc2OC)cc1` [Compound 82, [(R)-4-(6-Amino-pyridin-3-yl)-2-hydroxymethyl-piperazin-1-yl]-[4-methoxy-5-(4-methoxy-phenoxy)-pyridin-2-yl]-methanone], for which the IC50 is 180 nM.

In the case of `COc1cc(C(=O)N2C3CCC2CN(c2cnc(N)cc2OC)C3)ncc1Oc1ccc(F)cc1` [Compound 38, [3-(6-Amino-4-methoxy-pyridin-3-yl)-3,8-diaza-bicyclo[3.2.1]oct-8-yl]-[5-(4-fluoro-phenoxy)-4-methoxy-pyridin-2-yl]-methanone], the IC50 was 170 nM.

On to `COc1cc(C(=O)N2CCC(c3ccc(N)nn3)CC2)ncc1OCC1(C)CC1` [Compound 75, [4-(6-Amino-pyridazin-3-yl)-piperidin-1-yl]-[4-methoxy-5-(1-methyl-cyclopropylmethoxy)-pyridin-2-yl]-methanone], for which the IC50 was 1500 nM. The result for `COc1cc(C(=O)N2CCC(c3ccc(N)nn3)CC2)ncc1OC1CCCCC1` [Compound 62, [4-(6-Amino-pyridazin-3-yl)-piperidin-1-yl]-(5-cyclohexyloxy-4-methoxy-pyridin-2-yl)-methanone] reads 550 nM; that for `COc1cc(N)ncc1N1CCN(C(=O)c2ccc(Oc3ccccc3)cn2)[C@@H]([C@@H](C)O)C1` [Compound 50, (1R)-1-[(2R)-4-(6-amino-4-methoxypyridin-3-yl)-1-(5-phenoxypyridine-2-carbonyl)piperazin-2-yl]ethan-1-ol], 47 nM; that for `COc1cc(C(=O)N2CCC(c3nnc(N)cc3OC)CC2)ncc1Oc1ccc(F)cc1` [Compound 49, [4-(6-Amino-4-methoxy-pyridazin-3-yl)-piperidin-1-yl]-[5-(4-fluoro-phenoxy)-4-methoxy-pyridin-2-yl]-methanone], 250 nM. The result for `COc1cc(C(=O)N2CCC(c3cnc(N)cc3OC)CC2)ncc1OCCC1CC1` [Compound 48, (6-Amino-4-methoxy-3′,4′,5′,6′-tetrahydro-2′H-[3,4′]bipyridinyl-1′-yl)-[5-(2-cyclopropyl-ethoxy)-4-methoxy-pyridin-2-yl]-methanone] reads 250 nM.

With `COc1cc(C(=O)N2CCC(c3ccc(N)nn3)CC2)ncc1O[C@@H](C)C1CC1` [Compound 79, [4-(6-Amino-pyridazin-3-yl)-piperidin-1-yl]-[5-((S)-1-cyclopropyl-ethoxy)-4-methoxy-pyridin-2-yl]-methanone], the IC50 came out at 3700 nM. Then `COc1cc(C(=O)N2CCC(c3cnc(N)cc3OC3CC3)CC2)ncc1Oc1ccccc1` [Compound 84, (6-Amino-4-cyclopropoxy-3′,4′,5′,6′-tetrahydro-2′H-[3,4′]bipyridinyl-1′-yl)-[5-(phenoxy)-4-methoxy-pyridin-2-yl]-methanone], with 300 nM; and `COC[C@H]1CN(c2cnc(N)cc2OC)CCN1C(=O)c1cc(OC)c(Oc2ccccc2)cn1` [Compound 27, [(R)-4-(6-Amino-4-methoxy-pyridin-3-yl)-2-methoxymethyl-piperazin-1-yl]-(4-methoxy-5-phenoxy-pyridin-2-yl)-methanone], with 75 nM. Then `COc1cc(C(=O)N2CCC(c3cnc(N)cc3OC)CC2)ncc1OCC(C)(C)C` [Compound 59, (6-Amino-4-methoxy-3′,4′,5′,6′-tetrahydro-2′H-[3,4′]bipyridinyl-1′-yl)-[5-(2,2-dimethyl-propoxy)-4-methoxy-pyridin-2-yl]-methanone], with 340 nM; and `COc1cc(C(=O)N2CCC(c3cc(OC)c(N)nn3)CC2)ncc1Oc1ccc(F)cc1` [Compound 11, [4-(6-Amino-5-methoxy-pyridazin-3-yl)-piperidin-1-yl]-[5-(4-fluoro-phenoxy)-4-methoxy-pyridin-2-yl]-methanone], with 27 nM. As to `COc1cc(C(=O)N2CCC(c3cnc(N)cc3OC)CC2)ncc1OC[C@H]1C[C@H](C(F)(F)F)C1` [Compound 92, TFA salt of 4-Methoxy-5-[1-(4-methoxy-5-{[3-(trifluoromethyl)-cyclobutyl]methoxy}-pyridine-2-carbonyl)piperidin-4-yl]pyridin-2-amin], the IC50 came to 635 nM. Take `COc1cc(C(=O)N2CCC(c3cnc(N)cc3OC)CC2)ncc1OC1CCCCC1` [Compound 30, (6-Amino-4-methoxy-3′,4′,5′,6′-tetrahydro-2′H-[3,4′]bipyridinyl-1′-yl)-(5-cyclohexyloxy-4-methoxy-pyridin-2-yl)-methanone]: the IC50 worked out at 110 nM. For the compound `COc1cc(C(=O)N2CCC(c3cnc(N)cc3OC)CC2)ncc1OCC1(CF)CC1` [Compound 64, (6-Amino-4-methoxy-3′,4′,5′,6′-tetrahydro-2′H-[3,4′]bipyridinyl-1′-yl)-[5-(1-fluoromethyl-cyclopropylmethoxy)-4-methoxy-pyridin-2-yl]-methanone], the IC50 came out at 820 nM. Then `COc1cc(C(=O)N2CCN(c3cnc(N)cc3OC)CC2)ncc1Oc1ccc(F)cc1` [Compound 1, 5-{4-[5-(4-Fluorophenoxy)-4-methoxypyridine-2-carbonyl]piperazin-1-yl}-4-methoxypyridin-2-amine], with less than 27 nM; and `COc1cc(C(=O)N2CCC(c3ccc(N)nn3)CC2)ncc1OCCc1ccccc1` [Compound 73, [4-(6-Amino-pyridazin-3-yl)-piperidin-1-yl]-(4-methoxy-5-phenethyloxy-pyridin-2-yl)-methanone], with 1300 nM. Then `COc1cc(C(=O)N2CCC(c3ccc(N)nn3)CC2)ncc1Oc1ccc(Cl)cc1` [Compound 34, [4-(6-Amino-pyridazin-3-yl)-piperidin-1-yl]-[5-(4-chloro-phenoxy)-4-methoxy-pyridin-2-yl]-methanone], with 85 nM; and `COc1cc(C(=O)N2CCC(c3nnc(N)cc3OC)CC2)ncc1Oc1ccccc1` [Compound 47, 5-Methoxy-6-[1-(4-methoxy-5-phenoxypyridine-2-carbonyl)piperidin-4-yl]pyridazin-3-amine], with 220 nM; and `COc1cc(C(=O)N2CCC(c3cnc(N)cc3C)CC2)ncc1Oc1ccccc1` [Compound 10, (6-Amino-4-methyl-3′,4′,5′,6′-tetrahydro-2′H-[3,4′]bipyridinyl-1′-yl)-(4-methoxy-5-phenoxy-pyridin-2-yl)-methanone], with 27 nM.

A word on the IC50: it is the concentration at which inhibition is half-maximal.

The values are drawn from patent publication US10800757B2, “Inhibitors of TRPC6” (Boehringer Ingelheim International GmbH, priority 2017, dated 2020).
